In patent US7816353B2 (Exelixis, Inc., priority 2003, dated 2010):

Tests used:
Format in all cases: biochemical
p70S6K = biological target: T1, p70S6K (Homo sapiens, UniProt P23443, T412E); assay: p70S6 Kinase Assay (Luciferase-Coupled Chemiluminescent Kinase assay, LCCA); conditions: human p70S6 kinase domain residues 1-421, T412E; 5 μM ATP; read-out: p70S6K IC50
T1 construct: human p70S6 kinase domain residues 1-421, containing a T412E mutation; made in house
Summary of the method: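 Luciferase-coupled chemiluminescence measured percent ATP remaining after the 2 h kinase reaction at ambient temperature, with ATP near the kinase's KM. Ten inhibitor concentrations were tested. IC50 was obtained from a Hill-equation fit.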

Akt1 = biological target: T2, Akt1 (Homo sapiens, UniProt P31749); assay: Akt1 Kinase Assay (Luciferase-Coupled Chemiluminescent Kinase assay, LCCA); conditions: human Akt1 kinase domain residues R144-A480, activated with PDK1; 1 μM ATP; read-out: Akt-1 IC50
T2 construct: made in house
Procedure: (§1) Kinase activity and compound inhibition are investigated using one or more of the three assay formats described below. The ATP concentrations for each assay are selected to be close to the Michaelis-Menten constant (KM) for each individual kinase. Dose-response experiments are performed at 10 different inhibitor concentrations in a 384-well plate format. The data are fitted to four-parameter equation (2) below; where Y is the observed signal, X is the inhibitor concentration, Min is the background signal in the absence of enzyme (0% enzyme activity), Max is the signal in the absence of inhibitor (100% enzyme activity), IC50 is the inhibitor concentration at 50% enzyme inhibition and H represents the empirical Hill's slope to measure the cooperativity. Typically H is close to unity. Y=Min+(Max−Min)/(1+(X/IC50)^H) Equation (2) p70S6 Kinase Assay
Biochemical activity of Akt1 kinase was assessed using a Luciferase-Coupled Chemiluminescent Kinase assay (LCCA) format. Kinase activity was measured as the percent ATP remaining following the kinase reaction. Remaining ATP was detected by luciferase-luciferin-coupled chemiluminescence. Specifically, the reaction was initiated by mixing test compounds, 1 μM ATP, 5 μM crosstide peptide and 1.3 nM Akt1 (baculovirus expressed human Akt1 kinase domain residues R144-A480, activated with PDK1) in a 20 uL assay buffer (20 mM Tris-HCL pH 7.5, 10 mM MgCl2, 0.01% Triton X-100, 1 mM DTT, 3 mM MnCl2). The mixture is incubated at ambient temperature for 3 hours after which 20 μL luciferase-luciferin mix is added and the chemiluminescent signal read using a Wallac Victor2 reader. The luciferase-luciferin mix consists of 50 mM HEPES, pH 7.8, 8.5 μg/mL oxalic acid (pH 7.8), 5 (or 50) mM DTT, 0.4% Triton X-100, 0.25 mg/mL coenzyme A, 63 uM AMP, 28 μg/mL luciferin and 40,000 units/mL luciferase.

PDK1 = biological target: T3, PDK1 (Homo sapiens, UniProt O15530); assay: PDK1 Kinase Assay (Luciferase-Coupled Chemiluminescent Kinase assay, LCCA); conditions: human PDK1 kinase domain residues M51-T359; 0.5 μM ATP; read-out: PDK-1 IC50
T3 construct: human PDK1 kinase domain residues M51-T359; made in house
T3 sequence (O15530 51-359): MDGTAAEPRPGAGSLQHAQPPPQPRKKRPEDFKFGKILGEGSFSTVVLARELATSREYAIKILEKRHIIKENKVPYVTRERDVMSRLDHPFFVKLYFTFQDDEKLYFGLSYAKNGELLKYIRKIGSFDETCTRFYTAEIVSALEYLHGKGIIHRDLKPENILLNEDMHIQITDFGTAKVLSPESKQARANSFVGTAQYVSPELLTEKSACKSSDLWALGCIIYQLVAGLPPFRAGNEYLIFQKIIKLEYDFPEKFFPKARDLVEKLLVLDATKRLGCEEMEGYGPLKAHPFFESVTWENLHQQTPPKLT
Procedure: as §1
Biochemical activity of PDK1 kinase was assessed using a Luciferase-Coupled Chemiluminescent Kinase assay (LCCA) format. Kinase activity was measured as the percent ATP remaining following the kinase reaction. Remaining ATP was detected by luciferase-luciferin-coupled chemiluminescence. Specifically, the reaction was initiated by mixing test compounds, 0.5 μM ATP, 0.6 μM PDKtide peptide and 6 nM PDK1 (baculovirus expressed human PDK1 kinase domain residues M51-T359) in a 20 uL assay buffer (20 mM Hepes pH 7.5, 1 mM CaCl2, 0.03% CHAPS, 2 mM DTT). The mixture is incubated at ambient temperature for 3 hours after which 20 μL luciferase-luciferin mix is added and the chemiluminescent signal read using a Wallac Victor2 reader. The luciferase-luciferin mix consists of 50 mM HEPES, pH 7.8, 8.5 μg/mL oxalic acid (pH 7.8), 5 (or 50) mM DTT, 0.4% Triton X-100, 0.25 mg/mL coenzyme A, 63 uM AMP, 28 μg/mL luciferin and 40,000 units/mL luciferase.

T1 sequence (P23443 1-421 T412E): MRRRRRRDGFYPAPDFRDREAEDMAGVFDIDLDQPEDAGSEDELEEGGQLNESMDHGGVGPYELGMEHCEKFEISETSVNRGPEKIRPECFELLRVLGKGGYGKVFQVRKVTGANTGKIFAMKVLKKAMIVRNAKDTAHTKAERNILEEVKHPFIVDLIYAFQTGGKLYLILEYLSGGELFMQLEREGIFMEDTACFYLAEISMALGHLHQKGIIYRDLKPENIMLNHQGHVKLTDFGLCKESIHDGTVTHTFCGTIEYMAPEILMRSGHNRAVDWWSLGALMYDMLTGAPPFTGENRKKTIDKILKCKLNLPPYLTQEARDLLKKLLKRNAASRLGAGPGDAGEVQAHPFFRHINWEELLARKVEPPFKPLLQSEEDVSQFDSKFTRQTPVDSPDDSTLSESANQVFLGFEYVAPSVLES
T2 sequence (P31749 144-480): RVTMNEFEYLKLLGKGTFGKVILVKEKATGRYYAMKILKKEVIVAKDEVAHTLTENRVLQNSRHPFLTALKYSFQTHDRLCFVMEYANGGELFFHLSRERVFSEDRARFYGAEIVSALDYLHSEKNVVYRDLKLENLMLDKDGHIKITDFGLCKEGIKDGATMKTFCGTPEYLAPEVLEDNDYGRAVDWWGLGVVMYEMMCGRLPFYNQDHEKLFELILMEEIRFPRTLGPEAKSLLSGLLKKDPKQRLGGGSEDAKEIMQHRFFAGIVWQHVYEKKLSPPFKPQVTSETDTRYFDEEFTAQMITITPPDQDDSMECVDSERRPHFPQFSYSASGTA

Question: How did the IC50 (p70S6K) turn out when `CSc1nc(N)nc(N(C)[C@@H](C)C(=O)Nc2cc(C(=O)NCCCN3CCN(C)CC3)cc(C(F)(F)F)c2)c1C#N` [Example 131, 3-({N-[2-amino-5-cyano-6-(methylthio)pyrimidin-4-yl]-N-methyl-L-alanyl}amino)-N-[3-(4-methylpiperazin-1-yl)propyl]-5-(trifluoromethyl)benzamide] was run?
Answer: < 50 nM

Question: And the IC50 (Akt1)?
Answer: > 2000 nM

Question: What about the IC50 (PDK1) of the same compound?
Answer: > 2000 nM

Question: Which IC50 (p70S6K) does the source give for `CSc1nc(N)nc(N(C)[C@@H](C)C(=O)Nc2cccc(OC(F)(F)F)c2)c1C#N` [Example 132, N~2~-[2-amino-5-cyano-6-(methylthio)pyrimidin-4-yl]-N~2~-methyl-N-{3-[(trifluoromethyl)oxy]phenyl}-L-alaninamide] here?
Answer: < 50 nM

Question: What about the IC50 (Akt1) of the same compound?
Answer: > 2000 nM

Question: What about the IC50 (PDK1) of the same compound?
Answer: > 2000 nM

Question: What does the source list for `CSc1nc(N)nc(N(C)[C@@H](C)C(=O)Nc2cccc(Br)c2)c1C#N` [Example 133, N~2~-[2-amino-5cyano-6-(methylthio)pyrimidin-4-yl]-N-(3-bromophenyl)-N~2~-methyl-L-alaninamide]?
Answer: IC50 (p70S6K): < 50 nM; IC50 (Akt1): > 2000 nM; IC50 (PDK1): > 2000 nM

Question: `CSc1nc(N)nc(N(C)[C@@H](C)C(=O)Nc2cc(OC(F)(F)F)ccc2OCCN(C)C)c1C#N` [Example 134, N~2~-[2-amino-5-cyano-6-(methylthio)pyrimidin-4-yl]-N-{2-{[2-(dimethylamino)ethyl]oxy}-5-[(trifluoromethyl)oxy]phenyl}-N~2~-methyl-L-alaninamide] was tested. Which IC50 (p70S6K) did it give?
Answer: < 50 nM

Question: And the IC50 (Akt1)?
Answer: > 2000 nM

Question: What about the IC50 (PDK1) of the same compound?
Answer: > 2000 nM

Question: How did the IC50 (p70S6K) turn out when `CSc1nc(N)nc(N(C)[C@@H](C)C(=O)Nc2cc(C(=O)NCCN3CCOCC3)cc(C(F)(F)F)c2)c1C#N` [Example 135, 3-({N-[2-amino-5-cyano-6-(methylthio)pyrimidin-4-yl]-N-methyl-L-alanyl}amino)-N-(2-morpholin-4-ylethyl)-5-(trifluoromethyl)benzamide] was run?
Answer: < 50 nM

Question: And the IC50 (Akt1)?
Answer: > 2000 nM

Question: And the IC50 (PDK1)?
Answer: > 2000 nM

Question: Which results are given for `CCOc1nc(N)nc(N(C)[C@@H](CCCCN)C(=O)Nc2cccc(C(F)(F)F)c2)c1C#N` [Example 136, N~2~-[2-amino-5-cyano-6-(ethyloxy)pyrimidin-4-yl]-N~2~-methyl-N-[3-(trifluoromethyl)phenyl]-L-lysinamide]?
Answer: IC50 (p70S6K): < 50 nM; IC50 (Akt1): > 2000 nM; IC50 (PDK1): > 2000 nM

Question: Which IC50 (p70S6K) does the source give for `CSc1nc(N)nc(N[C@@H](C)C(=O)Nc2cc(OCCN(C)C)cc(C(F)(F)F)c2)c1C#N` [Example 137, N~2~-[2-amino-5-cyano-6-(methylthio)pyrimidin-4-yl]-N-[3-{[2-(dimethylamino)ethyl]oxy}-5-(trifluoromethyl)phenyl]-L-alaninamide] here?
Answer: < 50 nM

Question: And the IC50 (Akt1)?
Answer: > 2000 nM

Question: What about the IC50 (PDK1) of the same compound?
Answer: > 2000 nM

Question: What does the source list for `CSc1nc(N)nc(N[C@@H](COC(C)=O)C(=O)Nc2cccc(C(F)(F)F)c2)c1C#N` [Example 138, (2S0-2-{[2-amino-5-cyano-6-(methylthio)pyrimidin-4-yl]amino}-3-oxo-3-{[3-(trifluoromethyl)phenyl]amino}propyl acetate]?
Answer: IC50 (p70S6K): 50 to 500 nM; IC50 (Akt1): > 2000 nM; IC50 (PDK1): > 2000 nM

Question: Which results are given for `COc1nc(N)nc(NNC(=O)Nc2cccc(C(F)(F)F)c2)c1C#N` [Example 140, 2-[2-amino-5-cyano-6-(methyloxy)pyrimidin-4-yl]-N-[3-(trifluoromethyl)phenyl]hydrazinecarboxamide]?
Answer: IC50 (p70S6K): 50 to 500 nM; IC50 (Akt1): > 2000 nM; IC50 (PDK1): > 2000 nM

Question: How did the IC50 (p70S6K) turn out when `CSc1nc(N)nc(N[C@@H](C)C(=O)Nc2cc(C(=O)NO)cc(C(F)(F)F)c2)c1C#N` [Example 141, 3-({N-[2-amino-5-cyano-6-(methylthio)pyrimidin-4yl]-L-alanyl}amino)-N-hydroxy-5-(trifluoromethyl)benzamide] was run?
Answer: 50 to 500 nM

Question: And the IC50 (Akt1)?
Answer: > 2000 nM

Question: What about the IC50 (PDK1) of the same compound?
Answer: > 2000 nM

Question: `CSc1nc(N)nc(N[C@@H](CN(C)C)C(=O)Nc2cccc(C(F)(F)F)c2)c1C#N` [Example 142, N~2~-[2-amino-5-cyano-6-(methylthio)pyrimidin-4-yl]-3-(dimethylamino)-N-[3-(trifluoromethyl)phenyl]-L-alaninamide] was tested. Which IC50 (p70S6K) did it give?
Answer: 50 to 500 nM

Question: And the IC50 (Akt1)?
Answer: > 2000 nM

Question: And the IC50 (PDK1)?
Answer: > 2000 nM
